Reference: patent EP0929544B1, “TRICYCLIC ANTITUMOR COMPOUNDS BEING FARNESYL PROTEIN TRANSFERASE INHIBITORS” (SCHERING CORPORATION, priority 1996, dated 1998)
Where two headings read alike, the source gives them in different places.

Key:
[1] = target: T1, Farnesyl protein transferase (FPT) (Rattus norvegicus, UniProt Q02293+Q04631); experiment: In vitro enzyme assay: inhibition of farnesyl protein transferase (transfer of [3H]farnesyl from [3H]farnesyl pyrophosphate to Ras-CVLS); assay type: biochemical
T1 construct: Farnesyl protein transferase (FPT) was partially purified from rat brain; from tissue; host or cells: rat brain
Text: 1. In vitro enzyme assays: Inhibition of farnesyl protein transferase and geranylgeranyl protein transferase.
Farnesyl protein transferase (FPT) was partially purified from rat brain by ammonium sulfate fractionation followed by Q-Sepharose (Pharmacia, Inc.) anion exchange chromatography essentially as described by Yokoyama et al (Yokoyama, K., et al., (1991), A protein geranylgeranyltransferase from bovine brain: Implications for protein prenylation specificity, Proc. Natl. Acad. Sci USA 88: 5302-5306, the disclosure of which is incorporated herein by reference thereto). Human famesyl protein transferase was also expressed in E. coli, using cDNA clones encoding both the a and b subunits. The methods used were similar to those published (Omer, C. et al., (1993), Characterization of recombinant human farnesyl protein transferase: Cloning, expression, famesyl diphosphate binding, and functional homology with yeast prenyl-protein transferases, Biochemistry 32:5167-5176). Human famesyl protein transferase was partially-purified from the soluble protein fraction of E. coli as described above. […] Two forms of val^12-Ha-Ras protein were prepared as substrates for these enzymes, differing in their carboxy terminal sequence. One form terminated in cysteine-valine-leucine-serine (Ras-CVLS) the other in cystein-valine-leucine-leucine (Ras-CVLL). Ras-CVLS is a substrate for the famesyl protein transferase while Ras-CVLL is a substrate for geranylgeranyl protein transferase I. The cDNAs encoding these proteins were constructed so that the proteins contain an amino-terminal extension of 6 histidine residues. Both proteins were expressed in Escherichia coli and purified using metal chelate affinity chromatography. The radiolabelled isoprenyl pyrophosphate substrates, [^3H]farnesyl pyrophosphate and [^3H]geranylgeranyl pyrophosphate, were purchased from DuPont/New England Nuclear.
Several methods for measuring famesyl protein transferase activity have been described (Reiss et al 1990, Cell 62: 81; Schaber et al 1990, J. Biol. Chem. 265: 14701; Manne et al 1990, PNAS 87: 7541; and Barbacid & Manne 1993, U.S. Patent No. 5,185,248). […] The reaction was allowed to proceed for 30 minutes at room temperature and then stopped with 0.5 ml of 4% sodium dodecyl sulfate (SDS) followed by 0.5 ml of cold 30% TCA. Samples were allowed to sit on ice for 45 minutes and precipitated Ras protein was then collected on GF/C filter paper mats using a Brandel cell harvester. Filter mats were washed once with 6% TCA, 2% SDS and radioactivity was measured in a Wallac 1204 Betaplate BS liquid scintillation counter. Percent inhibition was calculated relative to the DMSO vehicle control.

[2] = tested on: Ras processing in COS monkey kidney cells; experiment: Cell-based assay: transient expression of val12-Ha-Ras-CVLS in COS cells, effect on Ras processing (immunoblot); conditions: Primates, read-out: INHIBITION OF RAS PROCESSING IC50
Text: 2. Cell-Based Assay: Transient expression of val^12-Ha-Ras-CVLS and val^12-Ha-Ras-CVLL in COS monkey kidney cells: Effect of famesyl protein transferase inhibitors on Ras processing and on disordered cell growth induced by transforming Ras.
COS monkey kidney cells were transfected by electroporation with the plasmid pSV-SPORT (Gibco/BRL) containing a cDNA insert encoding either Ras-CVLS or Ras-CVLL, leading to transient overexpression of a Ras substrate for either famesyl protein transferase or geranylgeranyl protein transferase I, respectively (see above).
Following electroporation, cells were plated into 6-well tissue culture dishes containing 1.5 ml of Dulbecco's-modified Eagle's media (GIBCO, Inc.) supplemented with 10% fetal calf serum and the appropriate famesyl protein transferase inhibitors. After 24 hours, media was removed and fresh media containing the appropriate drugs was re-added.
48 hours after electroporation cells were examined under the microscope to monitor disordered cell growth induced by transforming Ras. Cells expressing transforming Ras become more rounded and refractile and overgrow the monolayer, reminiscent of the transformed phenotype. Cells were then photographed, washed twice with 1 ml of cold phosphate-buffered saline (PBS) and removed from the dish by scraping with a rubber policeman into 1 ml of a buffer containing 25 mM Tris, pH 8.0; 1 mM ethylenediamine tetraacetic acid; 1 mM phenylmethylsulfonyl fluoride; […]; and 0.1 mM pepstatin. Cells were lysed by homogenization and cell debris was removed by centrifugation at 2000 × g for 10 min.
Cellular protein was precipitated by addition of ice-cold trichloroacetic acid and redissolved in […] of SDS-electrophoresis sample buffer. Samples ([…]) were loaded onto 14% polyacrylamide minigels (Novex, Inc.) and electrophoresed until the tracking dye neared the bottom of the gel. Proteins resolved on the gels were electroblotted onto nitrocellulose membranes for immunodetection.
Membranes were blocked by incubation overnight at 4°C in PBS containing 2.5% dried milk and 0.5% Tween-20 and then incubated with a Ras-specific monoclonal antibody, Y13-259 (Furth, M.E., et al., (1982), Monoclonal antibodies to the p21 products of the transforming gene of Harvey murine sarcome virus and of the cellular ras gene family, J. Virol. 43: 294-304), in PBS containing 1% fetal calf serum for one hour at room temperature. After washing, membranes were incubated for one hour at room temperature with a 1:5000 dilution of secondary antibody, rabbit anti-rat IgG conjugated to horseradish peroxidase, in PBS containing 1% fetal calf serum. The presence of processed and unprocessed Ras-CVLS or Ras-CVLL was detected using a colorimetric peroxidase reagent (4-chloro-1-naphthol) as described by the manufacturer (Bio-Rad).

[3] = FPT INHIBITION; read-out: FPT IC50
[4] = read-out: FPT IC50; FPT INHIBITION

T1 sequence (Q02293 whole entry, one chain of several): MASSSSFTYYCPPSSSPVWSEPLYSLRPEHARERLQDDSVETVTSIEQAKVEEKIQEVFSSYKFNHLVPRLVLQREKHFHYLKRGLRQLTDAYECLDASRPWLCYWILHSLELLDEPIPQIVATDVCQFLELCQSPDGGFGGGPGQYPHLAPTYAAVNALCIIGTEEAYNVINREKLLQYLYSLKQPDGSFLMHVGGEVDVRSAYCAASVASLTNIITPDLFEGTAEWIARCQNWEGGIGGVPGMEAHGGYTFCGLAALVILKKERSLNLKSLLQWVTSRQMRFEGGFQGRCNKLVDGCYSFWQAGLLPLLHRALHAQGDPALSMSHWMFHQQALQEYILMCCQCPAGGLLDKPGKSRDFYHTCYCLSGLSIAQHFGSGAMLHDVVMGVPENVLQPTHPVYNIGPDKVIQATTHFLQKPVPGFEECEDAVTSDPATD

| Compound | IC50 [1, 3] | IC50 ([2]; ACTIVITY IN COS CELLS) | also measured |
| --- | --- | --- | --- |
| O=C(CN1CCCC1=O)N1CCC(C2c3ncc(Br)cc3CCc3cc(Cl)cc(Cl)c32)CC1 (single isomer, unassigned) [Example 10] | 0.019 µM | 0.5 µM | – |
| CN(C)C(=O)CCC(=O)N1CCC(C2c3ncc(Br)cc3CCc3cc(Cl)cc(Cl)c32)CC1 (single isomer, unassigned) [Example 13] | 0.015 µM | 0.2 µM | – |
| O=C(CCC(=O)N1CCC(C2c3ncc(Br)cc3CCc3cc(Cl)cc(Cl)c32)CC1)N1CCCC1 (single isomer, unassigned) [Example 14] | 0.016 µM | 0.25 µM | – |
| O=C(NCCCC(=O)N1CCC(C2c3ncc(Br)cc3CCc3cc(Cl)cc(Cl)c32)CC1)c1cccnc1 (single isomer, unassigned) [Example 18] | – | 0.54 µM | inhibition at 0.093 µM ([1]; @ 93 nM; read-out: FPT inhibition (percent inhibition)): 9% |
| CN(C)CCCC(=O)N1CCC(C2c3ncc(Br)cc3CCc3cc(Cl)cc(Br)c32)CC1 (single isomer, unassigned; (+)) [Example 2, (+)-4-(3,10-DIBROMO-8-CHLORO-6,11-DIHYDRO-5H-BENZO[5,6]CYCLO-HEPTA[1,2-b]PYRIDIN-11-YL)-1-[4-(DIMETHYLAMINO)-1-OXOBUTYL]PIPERIDINE] | 0.004 µM | 0.013 µM | – |
| COC(=O)CCCC(=O)N1CCC([C@H]2c3ncc(Br)cc3CCc3cc(Cl)cc(Br)c32)CC1 [Example 51, (+)-METHYL 4-(3,10-DIBROMO-8-CHLORO-6,11-DIHYDRO-5H-BENZO[5,6]CYCLO-HEPTA[1,2-b]PYRIDIN-11(R)-YL)-DELTA-OXO-1-PIPERIDININE PENTANOATE] | 0.019 µM | – | – |
| O=C(O)CCCC(=O)N1CCC([C@H]2c3ncc(Br)cc3CCc3cc(Cl)cc(Br)c32)CC1 [Example 52, (+)-SODIUM 4-(3,10-DIBROMO-8-CHLORO-6,11-DIHYDRO-5H-BENZO[5,6]CYCLO-HEPTA[1,2-b]PYRIDlN-11(R)-YL)-DELTA-OXO-1-PI[…]] | – | – | IC50 [1, 4]: 0.044 µM |
| NC(=O)CCCC(=O)N1CCC([C@H]2c3ncc(Br)cc3CCc3cc(Cl)cc(Br)c32)CC1 [Example 53, (+)-4-(3,10-DIBROMO-8-CHLORO-6,11-DIHYDRO-5H-BENZO[5,6]CYCLO-HEPTA[1,2-b]PYRIDIN-11(R)-YL)-DELTA-OXO-1-PIPERIDININE PENTANAMIDE] | 0.01 µM | – | – |
| COC(=O)CCCCC(=O)N1CCC([C@H]2c3ncc(Br)cc3CCc3cc(Cl)cc(Br)c32)CC1 [Example 54, (+)-METHYL 4-(3,10-DIBROMO-8-CHLORO-6,11-DIHYDRO-5H-BENZO[5,6]CYCLO-HEPTA[1,2-b]PYRIDIN-11(R)-YL)-EPSILON-OXO -1-PIPERIDININE HEXANOATE] | 0.015 µM | – | – |
| O=C(O)CCCCC(=O)N1CCC([C@H]2c3ncc(Br)cc3CCc3cc(Cl)cc(Br)c32)CC1 [Example 55, (+)-SODIUM 4-(3,10-DIBROMO-8-CHLORO-6,11-DIHYDRO-5H-BENZO[5,6]CYCLO-HEPTA[1,2-b]PYRIDIN-11(R)-YL)-EPSILON-OXO-1-PI[…]] | – | – | IC50 [1, 4]: 0.017 µM |
| NC(=O)CCCCC(=O)N1CCC([C@H]2c3ncc(Br)cc3CCc3cc(Cl)cc(Br)c32)CC1 [Example 56, (+)-4-(3,10-DIBROMO-8-CHLORO-6,11-DIHYDRO-5H-BENZO[5,6]CYCLO-HEPTA[1,2-b]PYRIDIN-11(R)-YL)-EPSILON-OXO-1-PIPERIDININE HEXANAMIDE] | 0.007 µM | – | – |
| COC(=O)CCCCCC(=O)N1CCC([C@H]2c3ncc(Br)cc3CCc3cc(Cl)cc(Br)c32)CC1 [Example 57, (+)-METHYL 4-(3,10-DIBROMO-8-CHLORO-6,11-DIHYDRO-5H-BENZO[5,6]CYCLO-HEPTA[1,2-b]PYRIDIN-11(R)-YL)-OMEGA-OXO-1-PIPERIDININE HEPTANOATE] | 0.011 µM | – | – |
| O=C(O)CCCCCC(=O)N1CCC([C@H]2c3ncc(Br)cc3CCc3cc(Cl)cc(Br)c32)CC1 [Example 58, (+)-SODIUM 4-(3,10-DIBROMO-8-CHLORO-6,11-DIHYDRO-5H-BENZO[5,6]CYCLO-HEPTA[1,2-b]PYRIDIN-11(R)-YL)-OMEGA-OXO -1-PIPERIDININE HEPTANOATE] | 0.0091 µM | – | IC50 ([2]; COS): 0.3 µM |
| NC(=O)CCCCCC(=O)N1CCC([C@H]2c3ncc(Br)cc3CCc3cc(Cl)cc(Br)c32)CC1 [Example 59, (+)-4-(3,10-DIBROMO-8-CHLORO-6,11-DIHYDRO-5H-BENZO[5,6]CYCLO-HEPTA[1,2-b]PYRIDIN-11(R)-YL)-OMEGA-OXO-1-PIPERIDININE HEPTANAMIDE] | 0.0033 µM | – | – |
